Results from patent US6559115B1, “Detergent tablet with high mechanical and dissolution characteristics” (The Procter & Gamble Company, priority 1998, dated 2003).

Experiments:
[1] = Conductivity test defining a highly soluble compound; format: physicochemical; details: conductivity reaches 80% of maximum in less than 10 seconds
Experimental: A solution is prepared as follows comprising de-ionised water as well as 20 grams per liter of a specific compound:
1—20 g of the specific compound is placed in a Sotax Beaker. This beaker is placed in a constant temperature bath set at 10° C. A stirrer with a marine propeller is placed in the beaker so that the bottom of the stirrer is at 5 mm above the bottom of the Sotax beaker. The mixer is set at a rotation speed of 200 turns per minute.
2—980 g of the de-ionised water is introduced into the Sotax beaker.
3—10 s after the water introduction, the conductivity of the solution is measured, using a conductivity meter.
4—Step 3 is repeated after 20, 30, 40, 50, 1 min, 2 min, 5 min and 10 min after step 2.
5—The measurement taken at 10 min is used as the plateau value or maximum value.

[2] = Tablet compression and tensile strength (diametrical fracture stress); format: physicochemical; details: tensile strength increased by over 30% by 3% compound at compacting force 3000N
Excerpt: For the purpose of this invention, the Cohesive Effect on the particulate material of a detergent matrix is characterised by the force required to break a tablet based on the examined detergent matrix pressed under controlled compression conditions. […] Means to assess tablet strength (also refer to diametrical fracture stress) are given in Pharmaceutical dosage forms: tablets volume 1 Ed. H. A. Lieberman et al, published in 1989.
The temperature of the addition is between 10 and 80 C., more pref. between 10 and 40 C.
For a cylindrical tablet, the tensile strength corresponds to the diametrical fracture stress (DFS) which is a way to express the strength of a tablet, and is determined by the following equation: [formula]
Where F is the maximum force (Newton) to cause tensile failure (fracture) measured by a VK 200 tablet hardness tester supplied by Van Kell industries, Inc. D is the diameter of the tablet, and t the thickness of the tablet.
iii) Tablets were then made the following way: 50 g of the mixture was introduced into a mould of circular shape with a diameter of 5.5 cm and compressed to give a tablet tensile strength (or diametrical fracture stress) of 15 kPa. The force required to obtain a tablet tensile strength of 15 kPa was 2400 N. The tablet height was 1.94 cm.

sodium di isoalkylbenzene sulphonate [Compounds of Example 1]
Highly soluble compound according to the invention [1]: highly soluble | Cohesive effect on the particulate material [2]: having a cohesive effect
